Measurements from publication PMC3006138, “Fexinidazole – A New Oral Nitroimidazole Drug Candidate Entering Clinical Development for the Treatment of Sleeping Sickness” (PLoS Neglected Tropical Diseases, 2010).
Like-named read-outs stand apart in the source and are kept apart here.

Tests used:
[1] = molecular target: hERG (Homo sapiens, UniProt Q12809); test: hERG tail current, patch clamp in HEK 293 cells; conditions: for Residual Current (% of control): 37°C
Description: Formulation and stored at 2-4°C when not in use. When in use Tyrode solution was stored at
CaCl2, 1 MgCl2, 5.5 glucose and 5 HEPES. During the patch-clamp experiments the Tyrode
4.2.4. Storage and Formulation of Internal Solution
The internal solution was stored frozen at – 20°C until the day of use. The composition of
the internal solution was (in mM): 110 K+- aspartate, 23 KCl, 3 MgCl2, 1 EGTA, 5 HEPES,
0.4 GTP (Na+ salt), 5 ATP (Na+ salt), 5 creatine phosphate, 0.4 CaCl2 (pH 7.3 with KOH).
4.3.1. Source and Maintenance of hERG Transfected Cells
HEK 293 cells stably transfected with hERG cDNA, supplied by bSys GmbH Switzerland,
continuously maintained and passaged in sterile culture flasks containing a mixture of
Dulbecco’s modified Eagle’s medium and nutrient mixture F-12 supplemented with 10%
foetal bovine serum, 0.9% Penicillin/Streptomycin solution, Hygromycin B and Blasticidin.
HEK 293 cells were passaged at a confluence of about 80%. For electrophysiology studies,
the cells were seeded in Petri dishes (35x10 mm), with culture medium containing
tetracycline to activate channel expression, at a density that enables isolated cells to be
selected for patch-clamping. The dishes were stored in a humidified, gassed (5% CO2)
Petri dishes containing the cells to be used for electrophysiological studies were mounted on
the stage of an inverted microscope and were superfused with Tyrode solution. Membrane
currents were recorded (Axopatch 200B, Axon Instruments) in the whole cell configuration
by using suction pipettes (Harvard apparatus, 1.5 mm o.d. x 0.86 mm i.d.) with tip resistance
in the range of 2.5-3.5 MΩ. Gigaohm seals were formed between the patch electrodes and
individual cells. If the quality of the seal was judged to be poor, the electrode was replaced
and the process repeated with a different cell. Once a stable patch was achieved, recording
was commenced in voltage-clamp mode, with the cell initially clamped at –80 mV. Series
resistance and capacitance were compensated to about 70% of their initial value. Cells were
perfused through a microperfusion system allowing for solution changes to occur within
approximately one second. Computer software (pClamp version 8.0; Axon Instruments) was
used to generate voltage clamp protocols, acquire data and analyze current traces. The data
were stored on a computer hard disk for later analysis. Experiments were performed at a
temperature in the recording chamber of 37 ± 1°C, which was maintained with a temperature
Cells stably expressing hERG were held at –80 mV. Onset and steady state block of the
hERG channel current (IKr) due to the test items were monitored using a pulse pattern with
fixed amplitudes (first depolarization: -50 mV for 500 ms; second depolarization: +20 mV
for 2 seconds; hyperpolarization: -50 mV for 7 seconds). This pulse pattern was repeated
every 15 seconds, and current amplitude at the onset of the second step to –50 mV (“peak
tail current”) was monitored until a steady state was obtained. Recordings were acquired at
the sampling interval of 2 kHz and low-pass filtered at 1 kHz. The steady state peak tail
current was monitored and recorded in vehicle solution and then the test item was applied to
the bath solution. At the end the reference item E4031 was applied to block 100% of the
current for determination of the current “leak” response to the stimulation protocol. The
current amplitude was continually monitored through the onset of the voltage step to –50
mV until a new steady state level of current was achieved. Each cell was exposed to a single
test substance concentration.
4.5. Statistical Analysis
For each cell the effect of the test items was ascertained by calculating the residual current as
percentage of control (% control). All data were corrected for “leak” current by subtracting
Each value represents the average current
recorded from 3 sequential voltage pulses. Data from individual cells was collected and the

[2] = Rat 28-day toxicokinetics; format: in vivo; conditions: plasma, po; for AUC: read-out: AUC within 24 hours post dosing; for half-life: read-out: apparent terminal half-life (converted)
Description: In the rat repeated-dose toxicokinetic study, fexinidazole was administered orally by gavage once a day for 28 consecutive days to ten or fifteen Crl:CD (SD)IGS BR rats/sex/group at doses of 50, 200, or 800 mg/kg/day. A control group received the vehicle alone (5% Tween 80/0.5% methocel). Ten animals/sex/group were sacrificed at the end of the treatment period on day 29 or 30 of study. The remaining 5 animals/sex/group in the control and high-dose groups were sacrificed on day 43 at the end of a 2-weeks observation period. Systemic exposure to fexinidazole and its sulfoxide and sulfone metabolites was evaluated in three additional animals/sex/group. Samples were taken at predose, and 30 min, 1, 2, 4, 8 and 24 h after dosing on days 1, 14, and 28, and in addition at 48 and 72 h after treatment on day 28.
Toxicokinetic Report for the study No. 0504-2007
SD Standard deviation of the mean […]
t1/2,z Terminal half-life tmax Time to peak plasma concentration
ULOQ Upper limit of quantification
The study was conducted according to the study protocol and related amendment.
Fexinidazole was orally given by gavage once a day for 28 days to male and female Sprague Dawley rats according to the following scheme
Fexinidazole was suspended with 5% Tween 80 in 0.5% Methyl cellulose 400 cP.
6.2. Sample Collection and Handling
Blood samples (about 0.25 mL/sampling time) were withdrawn from retro-orbital sinus plexus under isofluorane anesthesia and put in heparinized plastic tubes kept on a ice-water bath, then centrifuged for 10 min at 1200g at +4°C and two aliquots of about 50 μL of plasma were stored in a freezer at -80°C until analysis. Blood was taken from three rats/gender/dose on Days 1 and 14 at pre-dose and 0.5, 1, 2, 4, 8 and 24 hours after dosing, on Day 28 at pre-dose and 1, 2, 4, 8, 24, 48 and 72 hours after dosing. After the administration of the vehicle, the samples were taken from three rats/gender at pre-dose and […]
6.3. Bioanalytical Method
Rat plasma concentrations of Fexinidazole and its sulfoxide (M1) and sulfone (M2) metabolites were determined by a validated LC/MS/MS method. The calibration range for the assay was 5-1000 ng/mL for Fexinidazole and 25-25000 ng/mL for M1 and M2.
Study samples containing analytes concentrations above the upper limit of quantitation were diluted with blank matrix prior to analysis.
6.4. Pharmacokinetic Calculations
Pharmacokinetic evaluation was carried out using non-compartmental approach with the aid […]
Excel spreadsheet (Microsoft Inc., Seattle, USA). […]
In the calculations, the undetectable concentrations between detectable ones were ignored.
After each dose level, Cmax and tmax of Fexinidazole and sulfoxide and sulfone metabolites […]
linear trapezoidal rule up to the last detectable concentration. On Day 28, since the blood […]
24 hours post dosing was calculated and denoted AUC0-24. This AUC was calculated in order to compare AUC values on Day 28 to those on Day 1 and Day 14. On Day 28, in addition, the half-life of the terminal phase, t1/2,z, was determined by linear regression analysis of the natural-log concentration vs. time curve, where t1/2,z = ln(2)/slope of the regression line.
Fexinidazole and metabolites accumulation ratios, based on Cmax (RA,Cmax), AUC0-24 (RA,AUC0-24) and AUC0-t(last) (RA,AUC0-t(last)), were calculated as the ratio between the parameters obtained on Day 14 and Day 28 to the corresponding one at Day 1. […]
pharmacokinetic parameters of each compound sorted by dose, gender and day of dosing. […]
compound are reported in Tables 1 and 2, whilst individual and mean parameters of each […]
Individual and mean (±SD, CV%) plasma
2A1 - 19A1 of Appendix 1. Individual plasma concentrations of Fexinidazole and both metabolites are plot in Figures 1 - 9, whilst the mean concentrations are plot in Figures 10 - 15. Mean normalized Cmax and AUC0-t(last) values of Fexinidazole and metabolites vs. dose are plot in Figures 16 - 21.
In-study bioanalytical validation data are reported in Appendix 2. All analytical batches met […]

[3] = One-electron reduction potential by pulse radiolysis; format: physicochemical
Description: One-electron reduction potentials were determined by pulse radiolysis following an established procedure.

[4] = Sprague Dawley (Crl:CD (SD)IGS BR), 50 mg/kg/day, Day 28, female
[5] = Sprague Dawley (Crl:CD (SD)IGS BR), 50 mg/kg/day, Day 28, male
[6] = Sprague Dawley (Crl:CD (SD)IGS BR), 200 mg/kg/day, Day 28, female
[7] = Sprague Dawley (Crl:CD (SD)IGS BR), 200 mg/kg/day, Day 28, male
[8] = Sprague Dawley (Crl:CD (SD)IGS BR), 800 mg/kg/day, Day 28, female (n=2)
[9] = Sprague Dawley (Crl:CD (SD)IGS BR), 800 mg/kg/day, Day 28, male
[10] = Sprague-Dawley (Crl:CD (SD)IGS BR), 50 mg/kg/day, 50 mg/kg/day po, day 1
[11] = Sprague-Dawley (Crl:CD (SD)IGS BR), 50 mg/kg/day, 50 mg/kg/day po, day 14
[12] = Sprague-Dawley (Crl:CD (SD)IGS BR), 200 mg/kg/day, 200 mg/kg/day po, day 1
[13] = both sexes, Sprague-Dawley (Crl:CD (SD)IGS BR), 200 mg/kg/day, 200 mg/kg/day po, day 14
[14] = both sexes, Sprague-Dawley (Crl:CD (SD)IGS BR), 800 mg/kg/day, 800 mg/kg/day po, day 1
[15] = both sexes, Sprague-Dawley (Crl:CD (SD)IGS BR), 800 mg/kg/day, 800 mg/kg/day po, day 14

Sequence of hERG (Q12809 whole entry): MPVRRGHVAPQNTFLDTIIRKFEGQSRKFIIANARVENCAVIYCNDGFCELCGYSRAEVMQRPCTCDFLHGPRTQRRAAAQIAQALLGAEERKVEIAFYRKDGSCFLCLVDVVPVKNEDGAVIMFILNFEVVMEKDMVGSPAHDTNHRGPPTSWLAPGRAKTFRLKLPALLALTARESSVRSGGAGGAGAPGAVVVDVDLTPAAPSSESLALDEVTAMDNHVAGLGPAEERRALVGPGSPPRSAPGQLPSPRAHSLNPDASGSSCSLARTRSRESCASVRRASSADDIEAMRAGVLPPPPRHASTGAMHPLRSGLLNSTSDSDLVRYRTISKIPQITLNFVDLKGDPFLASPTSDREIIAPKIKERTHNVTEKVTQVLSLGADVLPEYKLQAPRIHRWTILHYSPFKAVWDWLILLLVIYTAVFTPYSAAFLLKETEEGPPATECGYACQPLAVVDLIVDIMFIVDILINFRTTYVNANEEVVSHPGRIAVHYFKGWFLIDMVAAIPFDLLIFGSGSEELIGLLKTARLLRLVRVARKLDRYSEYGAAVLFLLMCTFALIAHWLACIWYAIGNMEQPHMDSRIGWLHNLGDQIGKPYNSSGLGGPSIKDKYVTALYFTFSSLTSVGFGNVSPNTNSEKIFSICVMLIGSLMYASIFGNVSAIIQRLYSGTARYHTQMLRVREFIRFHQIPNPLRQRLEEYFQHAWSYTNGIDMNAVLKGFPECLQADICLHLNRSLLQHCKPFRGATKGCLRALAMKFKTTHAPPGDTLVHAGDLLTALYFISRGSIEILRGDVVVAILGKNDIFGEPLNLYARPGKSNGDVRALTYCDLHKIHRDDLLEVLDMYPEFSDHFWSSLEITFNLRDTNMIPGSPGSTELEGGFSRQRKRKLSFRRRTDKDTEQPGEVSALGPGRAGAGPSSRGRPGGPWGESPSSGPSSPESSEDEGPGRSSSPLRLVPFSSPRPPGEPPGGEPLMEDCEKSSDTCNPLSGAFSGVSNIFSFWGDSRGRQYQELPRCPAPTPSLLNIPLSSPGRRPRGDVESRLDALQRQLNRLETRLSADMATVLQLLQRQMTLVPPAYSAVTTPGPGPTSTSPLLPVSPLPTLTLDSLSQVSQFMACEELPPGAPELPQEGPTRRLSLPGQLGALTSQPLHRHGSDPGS

- single electron redox potential [3]: −493 mV
Compound: Cn1c([N+](=O)[O-])cnc1COc1ccc([S+](C)[O-])cc1 (centres unmarked) [Fexinidazole sulfoxide]
- Residual Current (% of control) ([1]; 1 µM): 87.06±0.92%
- Residual Current (% of control) ([1]; 5 µM): 101.39±8.64%
- Residual Current (% of control) ([1]; 30 µM): 98.04±1.52%
- effect on hERG peak tail current ([1]; 1, 5 and 30 µM): judged not to affect hERG peak tail current
- AUC [2, 4]: 53.8 ± 15.7 µg·h/mL
- half-life [2, 4]: 6.1 ± 3.8 h
- AUC [2, 5]: 29.5 ± 8.92 µg·h/mL
- half-life [2, 5]: 5 ± 2 h
- AUC [2, 6]: 138 ± 14.2 µg·h/mL
- half-life [2, 6]: 8.1 ± 3.1 h
- AUC [2, 7]: 122 ± 29.3 µg·h/mL
- half-life [2, 7]: 6.3 ± 2.9 h
- AUC [2, 8]: 292 ± 40.3 µg·h/mL
- half-life [2, 8]: 8.6 ± 2.3 h
- AUC [2, 9]: 130 ± 56.8 µg·h/mL
- half-life [2, 9]: 6.6 ± 4.1 h
- Cmax [2, 10]: 2700 ± 1400 ng/mL
- Tmax [2, 10]: 2.5 ± 1.22 h
- AUC(0-t) ([2]; Sprague-Dawley (Crl:CD (SD)IGS BR), 50 mg/kg/day, 50 mg/kg/day po, day 1, read-out: AUC0-t(last)): 15.4 ± 9.28 µg·h/mL
- Cmax [2, 11]: 5230 ± 3280 ng/mL
- Tmax [2, 11]: 2.17 ± 0.98 h
- AUC(0-t) ([2]; Sprague-Dawley (Crl:CD (SD)IGS BR), 50 mg/kg/day, 50 mg/kg/day po, day 14, read-out: AUC0-t(last)): 29.8 ± 19.4 µg·h/mL
- Cmax [2, 12]: 11400 ± 2170 ng/mL
- Tmax [2, 12]: 2.33 ± 0.82 h
- AUC(0-t) ([2]; both sexes, Sprague-Dawley (Crl:CD (SD)IGS BR), 200 mg/kg/day, 200 mg/kg/day po, day 1, read-out: AUC0-t(last)): 85.9 ± 14.1 µg·h/mL
- Cmax [2, 13]: 15800 ± 3170 ng/mL
- Tmax [2, 13]: 3.33 ± 1.03 h
- AUC(0-t) ([2]; both sexes, Sprague-Dawley (Crl:CD (SD)IGS BR), 200 mg/kg/day, 200 mg/kg/day po, day 14, read-out: AUC0-t(last)): 118 ± 38.9 µg·h/mL
- Cmax [2, 14]: 31700 ± 3740 ng/mL
- Tmax [2, 14]: 4.67 ± 1.63 h
- AUC(0-t) ([2]; both sexes, Sprague-Dawley (Crl:CD (SD)IGS BR), 800 mg/kg/day, 800 mg/kg/day po, day 1, read-out: AUC0-t(last)): 410 ± 101 µg·h/mL
- Cmax [2, 15]: 25000 ± 8990 ng/mL
- Tmax [2, 15]: 2.67 ± 1.03 h
- AUC(0-t) ([2]; both sexes, Sprague-Dawley (Crl:CD (SD)IGS BR), 800 mg/kg/day, 800 mg/kg/day po, day 14, read-out: AUC0-t(last)): 277 ± 160 µg·h/mL
- Cmax ([2]; female, Sprague Dawley (Crl:CD (SD)IGS BR), 50 mg/kg, Day 1, female): 3890 ± 663 ng/mL
- AUC(0-t) ([2]; female, Sprague Dawley (Crl:CD (SD)IGS BR), 50 mg/kg, Day 1, female, read-out: AUC0-t(last)): 23.2 ± 5.33 µg·h/mL
- Cmax ([2]; female, Sprague Dawley (Crl:CD (SD)IGS BR), 50 mg/kg/day, Day 28, female): 11400 ± 6600 ng/mL
- AUC(0-t) ([2]; female, Sprague Dawley (Crl:CD (SD)IGS BR), 50 mg/kg/day, Day 28, female, read-out: AUC0-t(last)): 78 ± 23.6 µg·h/mL
- Cmax ([2]; female, Sprague Dawley (Crl:CD (SD)IGS BR), 200 mg/kg, Day 1, female): 12800 ± 1130 ng/mL
- AUC(0-t) ([2]; female, Sprague Dawley (Crl:CD (SD)IGS BR), 200 mg/kg, Day 1, female, read-out: AUC0-t(last)): 91.4 ± 19.7 µg·h/mL
- Cmax ([2]; female, Sprague Dawley (Crl:CD (SD)IGS BR), 200 mg/kg/day, Day 28, female): 22300 ± 1470 ng/mL
- AUC(0-t) ([2]; female, Sprague Dawley (Crl:CD (SD)IGS BR), 200 mg/kg/day, Day 28, female, read-out: AUC0-t(last)): 153 ± 36.9 µg·h/mL
- Cmax ([2]; female, Sprague Dawley (Crl:CD (SD)IGS BR), 800 mg/kg, Day 1, female): 30600 ± 2620 ng/mL
- AUC(0-t) ([2]; female, Sprague Dawley (Crl:CD (SD)IGS BR), 800 mg/kg, Day 1, female, read-out: AUC0-t(last)): 453 ± 84.7 µg·h/mL
- Cmax ([2]; female, Sprague Dawley (Crl:CD (SD)IGS BR), 800 mg/kg/day, Day 28, female (n=2)): 25800 ± 2050 ng/mL
- AUC(0-t) ([2]; female, Sprague Dawley (Crl:CD (SD)IGS BR), 800 mg/kg/day, Day 28, female (n=2), read-out: AUC0-t(last)): 331 ± 57.3 µg·h/mL
- Cmax ([2]; male, Sprague Dawley (Crl:CD (SD)IGS BR), 50 mg/kg, Day 1, male): 1500 ± 413 ng/mL
- AUC(0-t) ([2]; male, Sprague Dawley (Crl:CD (SD)IGS BR), 50 mg/kg, Day 1, male, read-out: AUC0-t(last)): 7.66 ± 2.38 µg·h/mL
- Cmax ([2]; male, Sprague Dawley (Crl:CD (SD)IGS BR), 50 mg/kg/day, Day 28, male): 4530 ± 664 ng/mL
- AUC(0-t) ([2]; male, Sprague Dawley (Crl:CD (SD)IGS BR), 50 mg/kg/day, Day 28, male, read-out: AUC0-t(last)): 30.6 ± 10.9 µg·h/mL
- Cmax ([2]; male, Sprague Dawley (Crl:CD (SD)IGS BR), 200 mg/kg, Day 1, male): 9990 ± 2130 ng/mL
- AUC(0-t) ([2]; male, Sprague Dawley (Crl:CD (SD)IGS BR), 200 mg/kg, Day 1, male, read-out: AUC0-t(last)): 80.5 ± 4.31 µg·h/mL
- Cmax ([2]; male, Sprague Dawley (Crl:CD (SD)IGS BR), 200 mg/kg/day, Day 28, male): 11600 ± 2400 ng/mL
- AUC(0-t) ([2]; male, Sprague Dawley (Crl:CD (SD)IGS BR), 200 mg/kg/day, Day 28, male, read-out: AUC0-t(last)): 138 ± 45 µg·h/mL
- Cmax ([2]; male, Sprague Dawley (Crl:CD (SD)IGS BR), 800 mg/kg, Day 1, male): 32800 ± 4950 ng/mL
- AUC(0-t) ([2]; male, Sprague Dawley (Crl:CD (SD)IGS BR), 800 mg/kg, Day 1, male, read-out: AUC0-t(last)): 366 ± 113 µg·h/mL
- Cmax ([2]; male, Sprague Dawley (Crl:CD (SD)IGS BR), 800 mg/kg/day, Day 28, male): 16600 ± 2080 ng/mL
- AUC(0-t) ([2]; male, Sprague Dawley (Crl:CD (SD)IGS BR), 800 mg/kg/day, Day 28, male, read-out: AUC0-t(last)): 268 ± 64.1 µg·h/mL
